Test system: Plasmopara viticola
Assay: activity against peronospora of grapevines caused by Plasmopara viticola (protective spray treatment of potted vines)
Format: in vivo, Plasmopara viticola on grapevines
Details: individual active compound, Abbot's formula, untreated control 92% infection
Protocol: The active compounds, separately or jointly, were prepared as a stock solution comprising 0.25% by weight of active compound in acetone or DMSO. 1% by weight of the emulsifier Uniperol® EL (wetting agent having emulsifying and dispersant action based on ethoxylated alkylphenols) was added to this solution, and the mixture was diluted with water to the desired concentration.
Use example—activity against peronospora of gravevines caused by Plasmopara viticola
Leaves of potted vines were sprayed to runoff point with an aqueous suspension having the concentration of active compound stated below. The next day, the undersides of the leaves were inoculated with an aqueous sproangal suspension of Plasmopara viticola. The grapevines were then initially placed in a water-vapor-saturated chamber at 24° C. for 48 hours and then in a greenhouse at 20-30° C. for 5 days. After this period of time, the plants were again placed in a humid chamber for 16 hours to promote sporangiophore eruption. The extent of the development of the disease on the undersides of the leaves was then determined visually.
The visually determined percentages of infected leaf areas were converted into efficacies in % of the untreated control:
The efficacy (E) is calculated as follows using Abbot's formula: E=(1−α/β)·100 • α corresponds to the fungicidal infection of the treated plants in % and • β corresponds to the fungicidal infection of the untreated (control) plants in %
An efficacy of 0 means that the infection level of the treated plants corresponds to that of the untreated control plants; an efficacy of 100 means that the treated plants were not infected.
The expected efficacies of mixtures of active compounds were determined using Colby's formula (Colby, S. R. “Calculating synergistic and antagonistic responses of herbicide combinations”, Weeds, 15, 20-22, 1967) and compared with the observed efficacies.
Colby's formula: E=x+y−x·y/100 • E expected efficacy, expressed in % of the untreated control, when using the mixture of the active compounds A and B at the concentrations a and b • x efficacy, expressed in % of the untreated control, when using the active compound A at the concentration a
y efficacy, expressed in % of the untreated control, when using the active compound B at the concentration b

| Molecule | Efficacy in % of the untreated control (4 ppm in the spray liquor) [%] | Efficacy in % of the untreated control (16 ppm in the spray liquor) [%] | Efficacy in % of the untreated control (63 ppm in the spray liquor) [%] |
| --- | --- | --- | --- |
| 2,6-dinitro-4-octylphenyl crotonate und 2,4-dinitro-6-octylphenyl crotonate [II] | 2 | 2 | 2 |
| CC1CCN(c2c(-c3c(F)cc(F)cc3F)c(Cl)nc3ncnn23)CC1 [I, 5-chloro-7-(4-methylpiperidin-1-yl)-6-(2,4,6-trifluorophenyl)-[1,2,4]triazolo[1,5-a]pyrimidine] | – | 56 | – |

Source: US20070117814A1, “Fungicidal mixtures” (Basf Aktiengesellschaft, priority 2003, published 2007)
